Legend:
Retinal Ganglion Cells = type: cell-based, rats
Protocol: The cells were studied against several cell lines for any cytotoxic effects they might induce. Dissociated retinal cultures were prepared from rats and plated onto culture plates. The cells were treated with nanosome peptide and then incubated for 72 hours and fixed with formaldehyde. The cells were stained with β3 tubulin and imaged on the fluorescence microscope. The positive cells were counted and comparisons were taken.

[1] = system: primary rat meningeal fibroblast cells; type: cell-based, Sprague-Dawley Rats
Protocol: The nanosome toxicity was also tested against primary rat meningeal fibroblast cells. The cells were isolated from Sprague-Dawley Rats. The leptomeninges was removed from the rat and the meningeal fibroblast cells were isolated from the tissue. The cells were then plated out and treated with nanosome. The cell media was supplemented with resazurin for 2 hours and then harvested and the media fluorescence read at 570 nm. The cell samples were then frozen in deionised water for DNA analysis (FIG. 7). […] This supports the work carried out in the retinal cultures that the nanosomes are not toxic.

[2] = system: gram positive and gram negative bacteria; assay: Broad spectrum antibacterial activity; type: cell-based; settings: both gram positive and gram negative bacteria
Protocol: It is effective at killing both gram positive and gram negative bacteria and was particularly selective against pseudomonas aeruginosa with a MIC of 0.03 mg/mL.

Compound: N=C(N)NCCC[C@H](NC(=O)[C@H](CCCNC(=N)N)NC(=O)[C@H](CCCNC(=N)N)NC(=O)[C@H](CCCNC(=N)N)NC(=O)[C@H](CCCNC(=N)N)NC(=O)[C@H](CCCNC(=N)N)NC(=O)CCCCCNC(=S)Nc1ccc2c(c1)C(=O)OC21c2ccc(O)cc2Oc2cc(O)ccc21)C(=O)O [nanosome, RRRRRR-Linker-FITC]
- β3 tubulin positive cells, treated wells versus control (Retinal Ganglion Cells): no significant difference
- effect on the number of cells in the sample (DNA assay) [1]: did not have a significant effect
- killing of bacteria [2]: highly effective broad spectrum antibacterial agent

— patent publication US20160339079A1, “TRANSMUCOSAL AND TRANSEPITHELIAL DRUG DELIVERY SYSTEM” (UNIVERSITY OF BIRMINGHAM, priority 2014, published 2016)
